Laboratory results taken from patent publication US20130065897A1, “COMPOUNDS, PREPARATION AND USES THEREOF” (PETER MACCALLUM CANCER INSTITUTE, priority 2009, published 2013).

How the values were obtained:
KHYG-1 NK cells = assay: Toxicity to KHYG-1 NK cells (trypan blue viability); type: cell-based; conditions: viable cells as percentage of total (% viability), 18 to 24 hours
Method: Toxicity to KHYG-1 NK Cells
KHYG-1 cells were washed and resuspended in RPMI+0.1% BSA at 4×10^5 cells/ml and 50 μl of KHYG-1 cells were dispensed to each well of a 96-well V-bottom plate. Test compounds were added to KHYG-1 cells at a concentration of 20 μM and incubated at RT for 20 minutes. 100 μL of RPMI 0.1% BSA was added and the cells were incubated for 4 hours at 37° C. then washed ×3 in RPMI+0.1% BSA. Cells were then resuspended in 200 μl of complete medium and incubated for 18 to 24 hours at 37° C. Trypan blue was added to each well and viable (clear) cells counted as a percentage of total (clear+blue) cell number (% viability).

[1] = tested on: KHYG-1 NK cell-mediated lysis of K562 cells; assay: Inhibition of KHYG-1 NK cell-mediated lysis of K562 cells (51Cr release); type: cell-based; conditions: K562 target cells, Effector:Target 2:1, 4 hours 37° C.
Method: Inhibition of KHYG-1 NK Cell-Mediated lysis of K562 Cells
KHYG-1 cells were washed and resuspended in RPMI+0.1% BSA at 4×10^5 cells/ml and 50 μl of KHYG-1 cells were dispensed to each well of a 96-well V-bottom, plate. Test compounds were added to KHYG-1 cells at various concentrations up to 20 μM and incubated at RT for 20 minutes. 1×10^6 K562 target cells were labelled with 75 μCi ^51Cr in 200 μl RPMI for 90 mins at 37° C., cells were washed as described above and resuspended in 5 ml RPMI+0.1% BSA. 50 μl of ^51Cr labelled K562 leukemia target cells were added to each well of the KHYG-1 plate (Effector:Target 2:1) and incubated at 37° C. for 4 hours. ^51Cr release was assayed using a Skatron Harvesting Press and radioactivity estimated on a Wallac Wizard 1470 Automatic Gamma counter (Turku, Finland). The percentage of specific cytotoxicity was calculated by the formula: […]
and expressed as the mean of triplicate assays +/−standard error of the mean.

recombinant perforin = recombinant perforin (UniProt P10820); type: cell-based; conditions: read-out: Jurkat IC50; recombinant perforin pre-incubated 30 min with compound; 51Cr-labelled Jurkat cells, 0.1% BSA, 37° C. 4 hours
Method: Inhibition of Perforin-Mediated Lysis of Jurkat Cells
The ability of the compounds to inhibit the lysis of nucleated (Jurkat T lymphoma) cells in the presence of 0.1% BSA, as measured by release of ^51Cr was measured. Jurkat target cells were labelled by incubation in medium with 100 μCi ^51Cr for one hour. The cells were then washed three times to remove unincorporated isotope and re-suspended at 1×10^5 cells per mL in RPMI buffer supplemented with 0.1% BSA. […] The supernatant was collected and assessed for its radioactive content on a gamma counter (Wallac Wizard 1470 automatic gamma counter). Each data point was performed in triplicate and an IC50 was calculated from the range of concentrations described to above.

Sequence of recombinant perforin (P10820 whole entry): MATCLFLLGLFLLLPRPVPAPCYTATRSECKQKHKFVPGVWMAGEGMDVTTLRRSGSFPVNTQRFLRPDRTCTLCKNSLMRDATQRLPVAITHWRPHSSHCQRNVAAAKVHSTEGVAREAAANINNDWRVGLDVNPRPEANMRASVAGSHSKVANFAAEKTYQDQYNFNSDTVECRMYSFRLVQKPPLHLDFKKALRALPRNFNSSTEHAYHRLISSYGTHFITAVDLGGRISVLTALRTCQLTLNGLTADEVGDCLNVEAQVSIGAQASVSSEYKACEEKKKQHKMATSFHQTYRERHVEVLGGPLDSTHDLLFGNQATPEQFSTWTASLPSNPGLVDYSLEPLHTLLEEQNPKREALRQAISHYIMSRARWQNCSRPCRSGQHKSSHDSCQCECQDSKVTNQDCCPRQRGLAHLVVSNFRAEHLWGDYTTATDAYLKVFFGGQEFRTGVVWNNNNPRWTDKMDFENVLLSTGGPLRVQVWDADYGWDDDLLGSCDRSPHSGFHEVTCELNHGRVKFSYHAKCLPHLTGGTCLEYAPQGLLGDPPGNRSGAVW

Row | SMILES | melting point [°C] | percent viable KHYG-1 cells (trypan blue) at 20 μM (KHYG-1 NK cells) [%] | inhibition at 20 µM [1] [%] | IC50 (recombinant perforin) [µM]
1 | O=C1NC(=S)N/C1=C\c1ccc(-c2ccc3c(c2)COC3=O)cn1 [Cmpd 8, (E,Z)-5-((5-(1-oxo-1,3-dihydroisobenzofuran-5-yl)pyridin-2-yl)methylene)-2-thioxoimidazolidin-4-one] | > 300 | 96 | 57 | 
2 | O=C1NC(=S)N/C1=C\c1ccc(-c2ccc3c(c2)COC3=O)cc1 [Cmpd 6, (E,Z)-5-(4-(1-Oxo-1,3-dihydroisobenzofuran-5-yl)benzylidene)-2-thioxoimidazolidin-4-one] | > 300 | 95 | 50 | 
3 | O=C1NC(=S)N/C1=C/c1cc(-c2ccc3c(c2)COC3=O)cs1 [Cmpd 15, (E,Z)-5-((4-(1-Oxo-1,3-dihydroisobenzofuran-5-yl)thiophen-2-yl)methylene)-2-thioxoimidazolidin-4-one] | > 300 | 96 | 67 | 
4 | O=C1NCC/C1=C\c1ccc(-c2ccc3c(c2)COC3=O)s1 [Cmpd 37, (E,Z)-3-((5-(1-Oxo-1,3-dihydroisobenzofuran-5-yl)thiophen-2-yl)methylene)pyrrolidin-2-one] | 224 to 227 | 97 | 20 | 
5 | O=C1NC(=S)N/C1=C\c1csc(-c2ccc3c(c2)COC3=O)n1 [Cmpd 57, (E,Z)-5-((2-(1-Oxo-1,3-dihydroisobenzofuran-5-yl)thiazol-4-yl)methylene)-2-thioxoimidazolidin-4-one] | > 295 |  |  | 0.34
6 | O=C1NC(=S)N/C1=C\c1csc2ccc(-c3ccc4c(c3)COC4=O)cc12 [Cmpd 9] | > 300 | 0 | 80 | 
7 | O=C1NC(=S)N/C1=C\c1nc(-c2ccc3c(c2)COC3=O)cs1 [Cmpd 56, (E,Z)-5-((4-(1-Oxo-1,3-dihydroisobenzofuran-5-yl)thiazol-2-yl)methylene)-2-thioxoimidazolidin-4-one] | > 295 |  |  | 1.41
8 | O=C1NC(=S)N/C1=C/c1ccc(-c2cccnc2)s1 [Cmpd 26, (E,Z)-5-((5-(Pyridin-3-yl)thiophen-2-yl)methylene)-2-thioxoimidazolidin-4-one] | > 295 |  |  | 12.9
9 | O=C1NC(=S)N/C1=C\c1cccc(-c2ccc3c(c2)COC3=O)c1 [Cmpd 5, (E,Z)-5-(3-(1-Oxo-1,3-dihydroisobenzofuran-5-yl)benzylidene)-2-thioxoimidazolidin-4-one] | 285 to 288 | 97 | 64 | 
10 | O=C1NC(=S)N/C1=C\c1cc(-c2ccc3c(c2)COC3=O)no1 [Cmpd 58, (E,Z)-5-((3-(1-Oxo-1,3-dihydroisobenzofuran-5-yl)isoxazol-5-yl)methylene)-2-thioxoimidazolidin-4-one] | > 300 | 82 | 39 | 
11 | O=C1NC(=S)N/C1=C/c1cc(-c2ccc3c(c2)CNC3=O)cs1 [Cmpd 50, (E,Z)-5-(5-((5-Oxo-2-thioxoimidazolidin-4-ylidene)methyl)thiophen-3-yl)isoindolin-1-one] | > 300 |  | 42 | 3
12 | O=C1NC(=S)N/C1=C\c1cccc(-c2ccc3c(c2)CNC3=O)c1 [Cmpd 49, (E,Z)-5-(3-((5-Oxo-2-thioxoimidazolidin-4-ylidene)methyl)phenyl)isoindolin-1-one] | > 300 |  | 8 | 3.44
13 | O=C1NC(=S)N/C1=C/c1ccc(-c2ccc3c(c2)COC3=O)[nH]1 [Cmpd 53, (E,Z)-5-((5-(1-Oxo-1,3-dihydroisobenzofuran-5-yl)-1H-pyrrol-2-yl)methylene)-2-thioxoimidazolidin-4-one] | > 300 |  | 30 | 2.45
14 | O=C1NC(=S)N/C1=C/c1cc2cc(-c3ccc4c(c3)COC4=O)ccc2s1 [Cmpd 79, (E,Z)-5-((5-(1-Oxo-1,3-dihydroisobenzofuran-5-yl)benzo[b]thiophen-2-yl)methylene)-2-thioxoimidazolidin-4-one] | > 305 | 72 | 59 | 
15 | O=C1NC(=S)N/C1=C\c1csnc1-c1ccc2c(c1)COC2=O [Cmpd 59, (E,Z)-5-((3-(1-Oxo-1,3-dihydroisobenzofuran-5-yl)isothiazol-4-yl)methylene)-2-thioxoimidazolidin-4-one] | > 300 | 93 | 24 | 
16 | CN1CCN(CCCN2Cc3cc(-c4ccc(/C=C5/NC(=S)NC5=O)s4)ccc3C2=O)CC1 [Cmpd 76, (E,Z)-2-(3-(4-Methylpiperazin-1-yl)propyl)-5-(5-((5-oxo-2-thioxoimidazolidin-4-ylidene)methyl)thiophen-2-yl)isoindolin-1-one] | 197 to 201 |  | 58 | > 20
17 | O=C1NC(=S)N/C1=C/c1ccc(-c2ccc3c(c2)COC3=O)o1 [Cmpd 1, (E,Z)-5-((5-(1-Oxo-1,3-dihydroisobenzofuran-5-yl)furan-2-yl)methylene)-2-thioxoimidazolidin-4-one] | > 300 | 66 | 95 | 
18 | O=C1NC(=S)N/C1=C\c1cc(-c2ccc3c(c2)COC3=O)ns1 [Cmpd 60, (E,Z)-5-((3-(1-Oxo-1,3-dihydroisobenzofuran-5-yl)isothiazol-5-yl)methylene)-2-thioxoimidazolidin-4-one] | > 300 |  | 45 | 1.44
19 | [H]/N=C1/NC(=O)/C(=C\c2ccc(-c3ccc4c(c3)COC4=O)s2)N1C [Cmpd 4, (E,Z)-2-Imino-1-methyl-5-((5-(1-oxo-1,3-dihydroisobenzofuran-5-yl)thiophen-2-yl)methylene)imidazolidin-4-one] | > 300 | 100 | 50 | 
20 | O=C1NC(=S)N/C1=C/c1ccc(-c2ccc3c(c2)CN(CCN2CCOCC2)C3=O)s1 [Cmpd 67, (E,Z)-2-(2-Morpholinoethyl)-5-(5-((5-oxo-2-thioxoimidazolidin-4-ylidene)methyl)thiophen-2-yl)isoindolin-1-one] | 261 to 264 | 73 | 78 | 
21 | CC1c2cc(-c3ccc(/C=C4/NC(=S)NC4=O)s3)ccc2C(=O)N1C (stereo not drawn) [Cmpd 69, (E,Z)-2,3-Dimethyl-5-(5-((5-oxo-2-thioxoimidazolidin-4-ylidene)methyl)thiophen-2-yl)isoindolin-1-one] |  | 95 | 100 | 3.21
22 | CN(C)C(=O)c1ccc(-c2ccc(/C=C3/NC(=S)NC3=O)s2)cc1 [Cmpd 39, (E,Z)-N,N-Dimethyl-4-(5-((5-oxo-2-thioxoimidazolidin-4-ylidene)methyl)thiophen-2-yl)benzamide] |  | 95 | 89 | 6.93
